Blank lines part the entries; values can stand above or below the molecule they belong to.
Legend:
Assay type in all cases: physicochemical
[1] = Drying of the solids under vacuum, reanalysis by XRPD; conditions: for Solid form after drying: vacuum oven at 40° C. overnight, XRPD and 1H NMR
Method: A sample of each solid was dried in a vacuum oven at 40° C. overnight, then the samples were reanalysed by XRPD and ^1H NMR.
Approximately 20 mg of compound of Formula I (Form A) were weighed into vials, and 150 microliters of solvent system were added. The vials were agitated at 50° C., 5° C., or cycled between room temperature and 50° C. for 4 to 5 days. Solids were isolated by filtration and characterized by XRPD and thermal analysis. From acetone/5% water at 5° C., a hydrate was isolated (see FIGS. 15 and 16). […] From dimethylacetamide (DMA) cycled between room temperature and 50° C. for 5 days, a solvate was isolated (see FIGS. 17 and 18). […] Inclusion of 10% or more water with DMA prevented formation of DMA solvate.

[2] = Gravimetric Vapour Sorption (GVS); conditions: for Weight lost during the first sorption cycle (GVS): from 40 to 90% RH; for Solid form by XRPD after the GVS experiment: material recovered after GVS
Source text: There was no hysteresis. The material is non-hygroscopic.
The sample was non-hygroscopic, with only 0.16% weight gain in the first sorption cycle.

[3] = Stability testing: storage at 40° C./75% RH or 25° C./97% RH, reanalysis by XRPD; conditions: for Solid form by XRPD after storage at 40° C./75% RH: 7 days, samples of entries 38, 39, 41, 42; for Stability at 40° C./75% RH: salts of Formula I, salt screening; for Stability at 40° C./75% RH, reanalysis by XRPD: stored at 40° C./75% RH, after 7 days, 21 days and 35 days; for Solid form after storage at 40° C./75% relative humidity: 8 days storage
Method: A sample of J00439 was stored at 40° C./75% RH. […] Thus this solid form (which will be referred to as Form A) was stable to accelerated stability testing conditions. Note that some variations in XRPD peak intensity were observed over time.
Samples of entries 38, 39, 41, and 42 were stored at 40° C./75% RH. […]

[4] = as above; conditions: 8 days storage
Heating to about 100° C. = experiment: Heating to about 100° C.

- Solid form after drying [1]: desolvated to Form A
- Weight lost during the first sorption cycle (GVS) ([2]; first sorption cycle): 28 % wt
- Solid form by XRPD after the GVS experiment [2]: turned to Form A
- Solid form by XRPD after storage at 40° C./75% RH [3]: turned into Form A
Molecule: CC(C)n1nc(-c2ccc3oc(N)nc3c2)c2c(N)ncnc21 [Form E]

- Solid form after drying [1]: stable on drying
- Hygroscopicity by GVS [2]: non-hygroscopic
- Weight loss on desorption (GVS) ([2]; between 90 and 0% RH): 0.38%
- Weight gain in the first sorption cycle (GVS) ([2]; first sorption cycle): 0.16%
- Solid form by XRPD after the GVS experiment [2]: still Form C
- Solid form by XRPD after storage at 40° C./75% RH [3]: still of Form C
Molecule: CC(C)n1nc(-c2ccc3oc(N)nc3c2)c2c(N)ncnc21 [Form C]

- Stability at 40° C./75% RH [3]: Stable for 7 days
Molecule: 1,2-Ethane disulfonic acid

- Solid form after storage at 25° C./97% relative humidity [4]: converted to Form A
- Solid form after storage at 40° C./75% relative humidity [3]: converted to Form A
- Solid form after heating (Heating to about 100° C.): converted to Form A
Molecule: CC(C)n1nc(-c2ccc3oc(N)nc3c2)c2c(N)ncnc21 [DMA solvate]

- Stability at 40° C./75% RH [3]: Deliquescent
Molecule: Ethane sulfonic acid

Continued, molecule first:

Molecule: Maleic acid
- Stability at 40° C./75% RH [3]: Stable for 7 days

Molecule: CC(C)n1nc(-c2ccc3oc(N)nc3c2)c2c(N)ncnc21 [Form A, 5-(4-amino-1-isopropyl-1H-pyrazolo[3,4-d]pyrimidin-3-yl)benzo[d]oxazol-2-Amine]
- Hygroscopicity by GVS [2]: non-hygroscopic
- Solid form by XRPD after the GVS experiment [2]: still pattern A
- GVS weight change over the whole experiment ([2]; whole GVS experiment): 0.1%
- Stability at 40° C./75% RH, reanalysis by XRPD [3]: stable
- Stability at 40° C./75% RH, reanalysis by XRPD ([3]; listed as J00439): still pattern A

Molecule: Cc1ccc(S(=O)(=O)O)cc1 [p-Toluene sulfonic acid]
- Stability at 40° C./75% RH [3]: Changes pattern after 3 days,

Molecule: CC(C)n1nc(-c2ccc3oc(N)nc3c2)c2c(N)ncnc21 [Form B]
- Solid form after drying [1]: only partially desolvated
- Weight lost during the first sorption cycle (GVS) ([2]; first sorption cycle): 28 % wt
- Solid form by XRPD after the GVS experiment [2]: desolvated to Form A
- Solid form by XRPD after storage at 40° C./75% RH [3]: turned into Form A

Molecule: CC(C)n1nc(-c2ccc3oc(N)nc3c2)c2c(N)ncnc21 [hydrate]
- Solid form after storage at 25° C./97% relative humidity [4]: converted to Form A
- Solid form after vacuum drying ([1]; vacuum drying): converted to Form A
- Solid form by XRPD after the GVS experiment [2]: converted to Form A
- Solid form after storage at 40° C./75% relative humidity [3]: converted to Form A
- Solid form after heating (Heating to about 100° C.): converted to Form A

Molecule: Methane sulfonic acid
- Stability at 40° C./75% RH [3]: Deliquescent

— patent publication US20150065524A1, “KINASE INHIBITOR POLYMORPHS” (Intellikine LLC, priority 2011, published 2015)
